Measurements: ChEMBL document CHEMBL4613241, “Disulfide Cleavage in a Dimeric Epipolythiodioxopiperazine Natural Product Diminishes Its Apoptosis-Inducing Effect but Enhances Autophagy in Tumor Cells” (2020)
Active and inactive are the calls of the source. The calls are words filed in the database; no cut-off is given here.

What was measured:
T-24 [1] = test: Antiproliferative activity against human T24 cells assessed as reduction in cell viability by MTS assay; assay type: functional, cell-based
HCT-116 [2] = test: Antiproliferative activity against human HCT116 cells assessed as reduction in cell viability by MTS assay; assay type: functional, cell-based
ACHN [3] = test: Antiproliferative activity against human ACHN cells assessed as reduction in cell viability at 5 uM measured up to 72 hrs by MTS assay; assay type: functional, cell-based
HepG2 [4] = test: Inhibition of colony formation in human HepG2 at 1 to 5 uM after 2 weeks by trypan blue staining based assay; assay type: functional, cell-based
HCT-116 [5] = test: Inhibition of colony formation in human HCT116 at 1 to 5 uM after 2 weeks by trypan blue staining based assay; assay type: functional, cell-based
HepG2 [6] = test: Induction of apoptosis in human HepG2 cells assessed as increase in cleaved PARP1 level at 5 uM after 12 hrs by Western blot analysis; assay type: functional, cell-based
T-24 [7] = test: Induction of apoptosis in human T24 cells assessed as increase in cleaved PARP1 level at 5 uM after 12 hrs by Western blot analysis; assay type: functional, cell-based
HepG2 [8] = test: Induction of autophagy in human HepG2 cells assessed as increase in formation of autophagosome-like vacuoles at 0.5 uM after 2 to 48 hrs by TEM analysis; assay type: functional, cell-based
HepG2 [9] = test: Induction of autophagy in human HepG2 cells assessed as increase in LC3 puncta staining at 0.5 uM after 4 hrs by immunostaining based fluorescence microscopic analysis; assay type: functional, cell-based
HepG2 [10] = test: Induction of endoplasmic reticulum stress in human HepG2 cells assessed as increase in […] expression at 0.5 uM after 4 hrs by anti-ATF6 antibody staining based fluorescence microscopic method; assay type: functional, cell-based
HepG2 [11] = test: Induction of autophagy in human HepG2 cells assessed as inhibition of lactate generation at 5 uM up to 4 hrs; assay type: functional, cell-based
HepG2 [12] = test: Induction of autophagy in human HepG2 cells assessed as ratio of LC3-2 to total Erk1/2 protein level at 0.5 uM after 4 hrs by Western blot analysis (reference value: 1); assay type: functional
HepG2 [13] = test: Induction of autophagy in human HepG2 cells assessed as ratio of LC3-2 to total Erk1/2 protein level at 0.5 uM after 12 hrs in presence of CQ by Western blot analysis (reference value: 3.9); assay type: functional
HepG2 [14] = test: Induction of autophagy in human HepG2 cells assessed as accumulation of LC3-2 protein level at 0.5 uM after 12 hrs in presence of CQ by Western blot analysis relative to CQ; assay type: functional
[15] = molecular target: Serine/threonine-protein kinase mTOR (Homo sapiens) (UniProt P42345); test: Inhibition of mTOR phosphorylation at S2448 residue in human HepG2 cells assessed as ratio of phosphorylated mTOR to total mTOR level at 1 uM after 4 hrs by Western blot analysis (reference value: 1); assay type: cell-based
[16] = molecular target: Serine/threonine-protein kinase mTOR (Homo sapiens) (UniProt P42345); test: Inhibition of mTOR phosphorylation at S2448 residue in human HepG2 cells assessed as ratio of phosphorylated mTOR to total ERK level at 0.05 uM after 4 hrs by Western blot analysis (reference value: 1); assay type: cell-based
[17] = molecular target: Serine/threonine-protein kinase mTOR (Homo sapiens) (UniProt P42345); test: Inhibition of mTOR phosphorylation at S2448 residue in human HepG2 cells assessed as ratio of phosphorylated mTOR to total ERK level at 0.1 uM after 4 hrs by Western blot analysis (reference value: 1); assay type: cell-based
[18] = molecular target: RAC-alpha serine/threonine-protein kinase (Homo sapiens) (UniProt P31749); test: Inhibition of AKT phosphorylation at S473 residue in human HepG2 cells assessed as ratio of phosphorylated Akt to total Akt level at 0.5 uM after 4 hrs by Western blot analysis (reference value: 1); assay type: cell-based
[19] = molecular target: RAC-alpha serine/threonine-protein kinase (Homo sapiens) (UniProt P31749); test: Inhibition of AKT phosphorylation at S473 residue in human HepG2 cells assessed as ratio of phosphorylated Akt to total ERK level at 0.5 uM after 4 hrs by Western blot analysis (reference value: 1); assay type: cell-based
HepG2 [20] = test: Activation of AMPKalpha in human HepG2 cells assessed as ratio of phosphorylated AMPKalpha at T172 residue to total ERK level at 0.5 uM incubated for 4 hrs by Western blot analysis (reference value: 1); assay type: cell-based
HepG2 [21] = test: Induction of autophagy in human HepG2 cells assessed as ratio of LC3-2 level to total Erk1/2 protein level at 0.5 uM after 4 hrs in presence of CC by Western blot analysis (reference value: 1.3); assay type: functional
HepG2 [22] = test: Induction of autophagy in human HepG2 cells assessed as ratio of LC3-2 level to total Erk1/2 protein level at 0.5 uM after 4 hrs in presence of CC and CQ by Western blot analysis relative to CC; assay type: functional
HepG2 [23] = test: Activation of AMPKalpha in human HepG2 cells assessed as ratio of phosphorylated AMPKalpha at T172 residue to total ERK level at 0.5 uM incubated for 4 hrs in presence of CC by Western blot analysis relative to CC; assay type: cell-based
HepG2 [24] = test: Induction of autophagy in human HepG2 cells assessed as ratio of PFKFB3 expression to total ERK level after 2 hrs by Western blot analysis (reference value: 1); assay type: functional
HepG2 [25] = test: Induction of autophagy in human HepG2 cells assessed as ratio of HK2 expression to total ERK level after 2 hrs by Western blot analysis (reference value: 1); assay type: functional
HepG2 [26] = test: Induction of autophagy in human HepG2 cells assessed as ratio of LC3-2 level to total ERK level at 0.5 uM after 2 hrs in presence of 2-DG by Western blot analysis (reference value: 1.1); assay type: functional
HepG2 [27] = test: Induction of autophagy in human HepG2 cells assessed as ratio of LC3-2 level to total ERK level at 0.5 uM after 2 hrs in presence of PFK15 and CQ by Western blot analysis (reference value: 1.1); assay type: functional
HepG2 [28] = test: Induction of autophagy in human HepG2 cells assessed as ratio of LC3-2 level to total ERK level at 0.5 uM after 2 hrs in presence of HK2 siRNA and CQ by Western blot analysis (reference value: 3.1); assay type: functional
HepG2 [29] = test: Induction of autophagy in human HepG2 cells assessed as ratio of LC3-2 level to total ERK level at 0.5 uM after 2 hrs in presence of HK2 siRNA and CQ by Western blot analysis relative to HK2 siRNA; assay type: functional
HepG2 [30] = test: Antiproliferative activity against human HepG2 cells assessed as reduction in cell viability at 0.5 uM by MTS assay; assay type: functional, cell-based; conditions: TDE = time-dependent effect
ACHN [31] = test: Antiproliferative activity against human ACHN cells assessed as reduction in cell viability at 0.5 uM measured up to 72 hrs by MTS assay; assay type: functional, cell-based
HCT-116 [32] = test: Inhibition of colony formation in human HCT116 at 0.1 uM after 2 weeks by trypan blue staining based assay relative to control; assay type: functional; conditions: HCT-116, 336 h
HepG2 [33] = test: Induction of autophagy in human HepG2 cells assessed as increase in formation of autophagosomes at 0.5 uM by TEM analysis; assay type: functional, cell-based; conditions: TDE = time-dependent effect
HepG2 [34] = test: Induction of apoptosis in human HepG2 cells assessed as increase in cleaved PARP level by measuring ratio of cleaved PARP to total PARP level at 0.5 uM after 12 hrs by Western blot analysis; assay type: functional

Chain of RAC-alpha serine/threonine-protein kinase (Homo sapiens) (P31749 whole entry): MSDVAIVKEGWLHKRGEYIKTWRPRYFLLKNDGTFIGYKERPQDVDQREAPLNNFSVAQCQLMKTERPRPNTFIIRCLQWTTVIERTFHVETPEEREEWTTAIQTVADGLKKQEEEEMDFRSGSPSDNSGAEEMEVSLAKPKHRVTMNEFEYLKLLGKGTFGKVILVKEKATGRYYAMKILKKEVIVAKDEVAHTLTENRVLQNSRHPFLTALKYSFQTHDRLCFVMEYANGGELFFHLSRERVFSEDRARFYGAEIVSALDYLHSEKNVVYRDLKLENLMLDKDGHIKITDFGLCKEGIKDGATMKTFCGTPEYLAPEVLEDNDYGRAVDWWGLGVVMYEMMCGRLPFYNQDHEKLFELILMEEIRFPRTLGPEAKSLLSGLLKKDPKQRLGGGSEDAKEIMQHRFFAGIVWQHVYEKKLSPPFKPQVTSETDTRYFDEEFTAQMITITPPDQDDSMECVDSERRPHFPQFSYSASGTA

Structure (SMILES)	Activity (T-24 [1])	Activity (HCT-116 [2])	Activity (HepG2 [9])	Activity (HepG2 [10])	Ratio (HepG2 [12])	Ratio (HepG2 [13])	fold change (FC) (HepG2 [14])	Ratio [15]	Ratio [16]	Ratio [17]	Ratio [18]	Ratio [19]	Ratio (HepG2 [20])	fold change (FC) (HepG2 [22])	fold change (FC) (HepG2 [23])	Ratio (HepG2 [24])	Ratio (HepG2 [25])	Ratio (HepG2 [27])	Ratio (HepG2 [28])	fold change (FC) (HepG2 [29])	other results
CCC1(SC)C(=O)N2[C@H]3N(C)c4ccccc4C3(C34c5ccccc5N(C)[C@@H]3N3C(=O)C(SC)([C@@H](C)O)N(C)C(=O)C3(SC)[C@H]4O)[C@H](O)C2(SC)C(=O)N1C (some centres undefined)	Active	Active	Active	inactive	1.1	4.4	3.6	2.2	1	1	1.4	1.1	1.4	1.3	0.6	0.6	0.6	3.9	7.2	6.6	Activity (ACHN [3]): Active; inhibition (HepG2 [4]): Active; inhibition (HCT-116 [5]): Active; Activity (HepG2 [6]): inactive; Activity (T-24 [7]): inactive; Activity (HepG2 [8]): Active; inhibition (HepG2 [11]): Active; Ratio (HepG2 [21]): 0.7; Ratio (HepG2 [26]): 1
CC[C@@]12SS[C@]3(C(=O)N1C)[C@@H](O)C1(C45c6ccccc6N[C@@H]4N4C(=O)[C@]6([C@@H](C)O)SS[C@]4(C(=O)N6C)[C@H]5O)c4ccccc4N[C@@H]1N3C2=O (some centres undefined)	Active	Active	Active	inactive	1.2	4.2	3.2	1.8	1	0.9	1.4	1.2	1.2	0.9	0.8	0.7	0.8	4.4	4.7	2.8	Activity (HepG2 [30]): Tde; Activity (ACHN [31]): Active; inhibition at 0.1 µM (HCT-116 [32]): 100%; Activity (HepG2 [33]): Tde; Ratio (HepG2 [34]): 0.1
